The values below come from PubChem BioAssay (NCI).

“And” between values parts separate entries of the source, which are not always exact repeats. Equal values may be shown once.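 How tested: cells in 96-well plates exposed to compound for 48 hours at five concentrations. The concentration for 50% growth inhibition is given as GI50. TGI marks complete inhibition of growth.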 A value given as a limit tells only on which side of the number the result lay.

Some test systems named below: HT29 colon; RPMI-8226 leukemia; HCC-2998 colon; BT-549 breast; SF-295 CNS; COLO 205 colon; SK-MEL-5 melanoma; SF-539 CNS; NCI-H226 lung; NCI-H23 lung.
Common to all, as to test: inhibition of tumour cell growth, NCI panel, 48 h

With `[O-][n+]1cc(SCc2ccccc2)ncc1SCc1ccccc1`, the TGI in the assay with HT29 colon, in the assay on RPMI-8226 leukemia, in the assay with HCC-2998 colon, in the assay with BT-549 breast, in the assay on SF-295 CNS and with COLO 205 colon was greater than 10 µM throughout. For the same compound, the TGI in the assay on SK-MEL-5 melanoma, with SF-539 CNS, in the assay on NCI-H226 lung and with NCI-H23 lung was greater than 10 µM in each case.

Take `CC(=O)OC1COC(n2c(N)c(C#N)c(-c3ccccc3)c(C#N)c2=S)C(OC(C)=O)C1OC(C)=O` (stereo not given): the TGI with HT29 colon was greater than 100 µM; in the assay with RPMI-8226 leukemia it was 58.7 µM and 68.3 µM; with HCC-2998 colon, 90.1 µM and 56.9 µM; in the assay on BT-549 breast, 71.8 µM and 62.9 µM; in the assay on SF-295 CNS, greater than 100 µM; with COLO 205 colon, greater than 100 µM. Further, the TGI in the assay on SK-MEL-5 melanoma was > 100 µM and 95.4 µM; with SF-539 CNS, greater than 100 µM; with NCI-H226 lung, greater than 100 µM; in the assay on NCI-H23 lung, greater than 100 µM. The GI50 in the assay with NCI-H226 lung was 41.6 µM and 89.4 µM; in the assay on NCI-H23 lung it was 33.1 µM and 73.2 µM.

`CC(C)c1cc(C(C)C)c(B(c2ccccc2)c2ccccc2)c(C(C)C)c1Br`: the TGI in the assay on HT29 colon, in the assay with HCC-2998 colon, in the assay with BT-549 breast, with SF-295 CNS, with COLO 205 colon and in the assay on SK-MEL-5 melanoma was greater than 100 µM throughout. For the same compound, the TGI in the assay with SF-539 CNS, in the assay with NCI-H226 lung and with NCI-H23 lung was greater than 100 µM in each case.

Consider `CC(=O)c1c2c(cc3c1CCC3)CCC2`, for which the TGI in the assay on HT29 colon, in the assay on RPMI-8226 leukemia, in the assay on HCC-2998 colon, in the assay with BT-549 breast, in the assay on SF-295 CNS and in the assay on COLO 205 colon was greater than 100 µM each time. Further, the TGI in the assay on SK-MEL-5 melanoma, with SF-539 CNS, in the assay on NCI-H226 lung and with NCI-H23 lung was greater than 100 µM throughout.

Take `COc1ccc(C2CCc3c(cnc4nc(N)nc(N)c34)C2)cc1` (stereo not given): the TGI with HT29 colon, in the assay on RPMI-8226 leukemia, in the assay on HCC-2998 colon, in the assay on BT-549 breast, in the assay with SF-295 CNS and in the assay with COLO 205 colon was greater than 100 µM in each case. For the same compound, the TGI in the assay with SK-MEL-5 melanoma, in the assay with SF-539 CNS and in the assay with NCI-H226 lung was greater than 100 µM throughout.

As for `COc1cc(OC)cc(-c2nc3ccccc3c(=O)[nH]2)c1`, the TGI in the assay on HT29 colon, in the assay with RPMI-8226 leukemia, in the assay on HCC-2998 colon, in the assay on BT-549 breast, with SF-295 CNS and in the assay on COLO 205 colon was greater than 100 µM in each case. Besides, the TGI in the assay with SK-MEL-5 melanoma, with NCI-H226 lung and in the assay on NCI-H23 lung was greater than 100 µM in each case.

For `O=C(N(C1=CCCC1)N(c1ccccc1)c1ccccc1)C(F)(F)F`, the TGI was 42.6 µM with HT29 colon; 33.8 µM with HCC-2998 colon; 94.8 µM in the assay on BT-549 breast; 77 µM in the assay on SF-295 CNS; 40.6 µM with COLO 205 colon; 35.6 µM in the assay with SK-MEL-5 melanoma. Further, the TGI in the assay on SF-539 CNS was 45.9 µM; in the assay on NCI-H226 lung, 42.3 µM; with NCI-H23 lung, greater than 100 µM.

On to `COc1cc(C)c(S(=O)(=O)N(CCCN)OCCCN)c(C)c1C`, for which the TGI in the assay with HT29 colon was greater than 100 µM; in the assay on RPMI-8226 leukemia it was 49 µM; in the assay on HCC-2998 colon it was 57.1 µM; with BT-549 breast it was 66.5 µM; with SF-295 CNS it was greater than 100 µM; in the assay on COLO 205 colon, 41.2 µM. The TGI is 53 µM with SK-MEL-5 melanoma, greater than 100 µM with NCI-H226 lung and greater than 100 µM in the assay with NCI-H23 lung.

As for `COC1OC(=O)C(OC)C(OC)C1OC` (stereo not given), the TGI in the assay with HT29 colon, with RPMI-8226 leukemia, with HCC-2998 colon, in the assay on BT-549 breast, in the assay on SF-295 CNS and with COLO 205 colon was greater than 100 µM each time. The TGI in the assay on SK-MEL-5 melanoma, in the assay with SF-539 CNS and in the assay on NCI-H226 lung was greater than 100 µM in each case.

Regarding `C/C(=N\Nc1nc2ccccc2n1C)c1ccncn1`, the TGI in the assay with HT29 colon was 30.3 µM; with HCC-2998 colon, greater than 100 µM; with BT-549 breast, greater than 100 µM; in the assay on SF-295 CNS, greater than 100 µM; in the assay with COLO 205 colon, greater than 100 µM; with SK-MEL-5 melanoma, 11.6 µM. In addition, the TGI in the assay with SF-539 CNS was 21.8 µM; in the assay with NCI-H226 lung, greater than 45.7 µM; in the assay with NCI-H23 lung it was greater than 100 µM.

On to `N#Cc1c(NC(=S)Nc2ccccc2)sc2c1CCCC2`, for which the TGI in the assay with HT29 colon, with RPMI-8226 leukemia, with HCC-2998 colon, with BT-549 breast, in the assay on SF-295 CNS and in the assay with COLO 205 colon was greater than 100 µM each time. For the same compound, the TGI in the assay on SK-MEL-5 melanoma, in the assay on NCI-H226 lung and in the assay with NCI-H23 lung was greater than 100 µM each time.

Consider `Cc1nc2ccccc2nc1N1CCCC1`, for which the TGI in the assay on HT29 colon, in the assay with RPMI-8226 leukemia, in the assay on HCC-2998 colon, with BT-549 breast, in the assay with SF-295 CNS and in the assay with COLO 205 colon was greater than 100 µM in each case. Further, the TGI with SK-MEL-5 melanoma, in the assay on NCI-H226 lung and with NCI-H23 lung was greater than 100 µM in each case.

For `CC1=CCC(=O)[C@]2(C)C(CC(=O)O)[C@]3(C)C4=C(C)C(c5ccoc5)C[C@@H]4O[C@@H]3[C@H](O)[C@@H]12` (stereo not given in full), the TGI in the assay on RPMI-8226 leukemia, with HCC-2998 colon, in the assay on BT-549 breast, with SF-295 CNS, in the assay with COLO 205 colon and with SK-MEL-5 melanoma was greater than 100 µM throughout. Also, the TGI in the assay on SF-539 CNS and in the assay with NCI-H23 lung was greater than 100 µM throughout.

With `O=C1CSC2=NC3=C(COC/C3=C\c3ccc(F)cc3)C(c3ccc(F)cc3)N12` (stereo not given), the TGI in the assay on RPMI-8226 leukemia, in the assay on HCC-2998 colon, with BT-549 breast, with SF-295 CNS, in the assay with COLO 205 colon and in the assay on SK-MEL-5 melanoma was greater than 100 µM throughout. For the same compound, the TGI in the assay on SF-539 CNS, with NCI-H226 lung and in the assay with NCI-H23 lung was greater than 100 µM each time.
